Experiments:
Type in all cases: biochemical, P. sapidus
O-Methyltransferase [1] = test: Enzymatic conversion of the thiol substrate, product detected by GC-MS; conditions: compared with blanks (chemical and chemical-biological)
Description: Durch die Umsetzung von 2-Methyl-3-furanthiol als Substrat mit O-Methyltransferase wird beispielhaft das breite, Substanzklassen-übergreifende, Substratspektrum der O-Methyltransferase gezeigt. Neben den unter 6. aufgeführten Substraten werden beispielhaft auch Umsetzungen unter Verwendung von 2-Methyl-3-furanthiol durchgeführt.

O-Methyltransferase [2] = test: Enzymatic methylation of further substrates, conversion rates (Table 2); conditions: 34 °C, 500 µM educt, phosphate buffer pH 7,4 (100 mM), 24 h, without shaking; for Produktkonzentration: concentration of the methylated product
Description: In Tabelle 2 sind die Umsetzungsraten weiterer Ausführungsbeispiele zusammengestellt, wobei die Reaktionsbedingungen für die Umsetzungen in Tabelle 2 beispielhaft wie folgt ausgewählt wurden: Temperatur 34 °C, jeweils 500 µM Edukt- und Produktkonzentration, Phosphatpuffer pH = 7,4 (100 mM), Reaktionsdauer: 24 h, Durchführung jeweils ohne Schütteln). Tabelle 2: Weitere beispielhaft ausgewählte Umsatzraten

O-Methyltransferase [3] = test: Determination of enzyme kinetic parameters (Michaelis-Menten, non-linear regression)
Description: Bekanntermaßen werden Biokatalysatoren, bzw. Enzyme wie O-Methyltransferasen, auch durch die Bestimmung ihrer jeweiligen enzymkinetischen Parameter unter definierten Bedingungen charakterisiert. Daher werden anhand eines Beispiels auch die enzymkinetischen Parameter der O-Methyltransferase bestimmt. Die Versuchsergebnisse sind in Tabelle 1 zusammengestellt. Mit dem Substrat, gegenüber dem die beispielhaft untersuchte O-Methyltransferase die höchste Aktivität aufweist, sowie dem Cofaktor werden die enzymkinetischen Parameter (Km, vmax) graphisch nach nichtlinearer Regression (Michaelis-Menten, Softwarepaket OriginPro 2020) ermittelt (vgl. Fig. 8, Fig. 8A, Fig. 8B). Zudem wird beispielhaft die katalytische Konstante (kcat) sowie die katalytische Effizienz (kcat/Km) berechnet. Die resultierenden Werte sind zusammengefasst in Tabelle 1 aufgeführt. Tabelle 1: Enzymkinetische Parameter der aus P. sapidus abgeleiteten O-Methyltransferase unter Verwendung von p-Hydroxybenzaldehyd als Substrat
Fig. 1: Korrelation der Anzahl der Transkriptionskopien und der Peakflächen (normiert auf internen Standard) von p-Anisaldehyd der DK5 und MK57 Kulturen. Fig. 2: SDS-PAGE-Gel der O-Methyltransferase (L: Lysat von E. coli, P: Protein nach Reinigung mittels FPLC) und Western Blot Membran (Anti-His-Tag Antikörper). Fig. 3: Beispielhafte Umsetzung von p-Hydroxybenzaldehyd (500 µM) und SAM (500 µM) mittels O-Methyltransferase (0,16 µM) in Davies Puffer über 2 h (jeweils im Triplikat) zur Ermittlung des pH-Optimums; bei den für die Ordinatenachse gewählten willkürlichen Einheiten handelt es sich um die gerätetypische Quantifizierung der Peakfläche von p-Anisaldehyd im Chromatogramm der jeweiligen Probe aus der betreffenden Reaktionslösung nach Abschluss der Umsetzung. Fig. 4: Beispielhafte Umsetzung von p-Hydroxybenzaldehyd (500 µM) und SAM (500 µM) mittels O-Methyltransferase (0,16 µM) in 0,1 M Phosphatpuffer über 2 h bei 24 °C (jeweils im Triplikat) zur weiteren Ermittlung des pHOptimums. […]

| Umsetzungsrate (O-Methyltransferase [2]) | Produktkonzentration (O-Methyltransferase [2]) | Structure (SMILES) | further results |
| --- | --- | --- | --- |
|  |  | Cc1occc1S [2-Methyl-3-furanthiol] | Bildung des methylierten Produktes (O-Methyltransferase [1]): gesteigerte Bildung des methylierten Produktes |
| 2% | 11,5 ± 0,3 µM | O=c1ccc2cc(O)ccc2o1 [6-Hydroxycoumarin] |  |
| 5% | 23,8 ± 0,9 µM | COc1cc(C=O)ccc1O [Vanillin] |  |
|  |  | O=Cc1ccc(O)cc1 [p-Hydroxybenzaldehyd] | katalytische Konstante (kcat) (O-Methyltransferase [3]; calculated, p-Hydroxybenzaldehyd as substrate): 2,5 s^-1; mittlere maximale Geschwindigkeit (vmax) (O-Methyltransferase [3]; substrate with SAM (500 µM), enzyme 0,16 µM, 0,1 M phosphate buffer pH 7,4, 34 °C, 20 min): 43,7 mU mg^-1; Km (O-Methyltransferase [3]; substrate with SAM (500 µM), enzyme 0,16 µM, 0,1 M phosphate buffer pH 7,4, 34 °C, 20 min, read-out: mittlere Michaelis-Menten-Konstante (Km)): 79 µM |

From patent publication EP4303307A1, “METHOD FOR PRODUCING FLAVOURS USING O-METHYLTRANSFERASE FROM PLEUROTUS” (Justus-Liebig-Universität Gießen Rechtsabteilung, priority 2022, dated 2024)
